The record followed here is patent US10538567B2, “Compounds as peptidic trigonal GLP1/glucagon/GIP receptor agonists” (priority 2016, dated 2020).

The structures appear in SMILES notation. Numbered stars: 1 amine (or outer) side, 2 acyl side, 3 side chain; on linkers, the order of the positions; unused ones are H or OH. Square brackets hold non-standard residues; d marks the D form. Side chains are listed from the residue outwards. Peptide text beside a SMILES is read from it. * marks the point of attachment. γGlu = O=C(O)[C@H](CCC(=O)[*:2])N[*:1]; Stearoyl = CCCCCCCCCCCCCCCCCC(=O)*; Palmitoyl = CCCCCCCCCCCCCCCC(=O)*; Aib = CC(C)(N)C(=O)O

Test system in one data set: not listed separately
Description: Thioflavin T (ThT) assay for physical stability (fibrillation). The class given is physicochemical. The settings on record: 3 mg/ml, 100 mM acetate pH 4.5 with m-cresol, 37° C. shaking. An excerpt: Low physical stability of a peptide solution may lead to amyloid fibril formation, which is observed as well-ordered, thread-like macromolecular structures in the sample, which eventually may lead to gel formation. Thioflavin T (ThT) is widely used to visualize and quantify the presence of misfolded protein aggregates. [Biancalana et al. (2010) Biochimica et Biophysica Acta. 1804 (7): 1405-1412]. […] Enzymol. 309, 274-284]. The time course for fibril formation often follows the characteristic shape of a sigmoidal curve and can be separated into three regions: a lag phase, a fast growth phase, and a plateau phase.
The typical fibril formation process starts with the lag phase in which the amount of partially folded peptide turned into fibrils is not significant enough to be detected. The lag-time corresponds to the time the critical mass of the nucleus is built. Afterwards, a drastic elongation phase follows and fibril concentration increases rapidly.
Investigations were carried out to determine fibrillation tendencies under stress conditions by shaking at 37° C. within Fluoroskan Ascent FL.
For the tests in Fluoroskan Ascent FL, 200 μL sample were placed into a 96 well mictrotiter plate PS, flat bottom, Greiner Fluotrac No. 655076. Plates were sealed with Scotch Tape (Quiagen). Samples were stressed by continuous cycles of 10 s shaking at 960 rpm and 50 s rest period at 37° C. The kinetic was monitored by measuring fluorescence intensity every 20 minutes.
Peptides were diluted in a buffer system to a final concentration of 3 mg/ml. 20 μL of a 10.1 mM ThT solution in H2O were added to 2 mL of peptide solution to receive a final concentration of 100 μM ThT. For each sample eight replicates were tested.
Tht buffer system A) 100 mM Acetate pH 4.5 including m-cresol (100 mM Natriumacetat trihydrat, pH adjustment using 2N CH3COOH, 2.7 mg/mL m-cresol) Tht buffer system B) 100 mM citrate buffer pH 6.0
Lag time in hours in Thioflavin T (ThT) assay of peptide samples was determined in ThT buffer system A as described in Methods.
With `CCCCCCCCCCCCCCCC(=O)N[C@@H](CCC(=O)NCCCC[C@H](NC(=O)[C@H](CC(C)C)NC(=O)[C@H](CCCCN)NC(=O)[C@H](CO)NC(=O)[C@H](CC(C)C)NC(=O)[C@H](CC(=O)O)NC(=O)[C@H](CO)NC(=O)[C@@H](NC(=O)[C@H](Cc1ccccc1)NC(=O)[C@@H](NC(=O)CNC(=O)[C@H](Cc1c[nH]cn1)NC(=O)C(C)(C)NC(=O)[C@@H](N)Cc1c[nH]cn1)[C@@H](C)O)[C@@H](C)O)C(=O)N[C@@H](CCC(=O)O)C(=O)N[C@@H](CCC(=O)O)C(=O)N[C@@H](CCC(N)=O)C(=O)N[C@@H](CCCNC(=N)N)C(=O)N[C@@H](CCC(N)=O)C(=O)NC(C)(C)C(=O)N[C@@H](CCC(=O)O)C(=O)N[C@@H](Cc1ccccc1)C(=O)N[C@H](C(=O)N[C@@H](CCC(=O)O)C(=O)N[C@@H](Cc1c[nH]c2ccccc12)C(=O)N[C@@H](CC(C)C)C(=O)N[C@@H](CCCCN)C(=O)N[C@@H](C)C(=O)N[C@H](C)C(=O)NCC(=O)N1CCC[C@H]1C(=O)N1CCC[C@H]1C(=O)N[C@@H](CO)C(=O)NC(C)(C)C(=O)N[C@@H](CCCCN)C(=O)N1CCC[C@H]1C(=O)N1CCC[C@H]1C(=O)N1CCC[C@H]1C(=O)N[C@@H](CCCCN)C(N)=O)[C@@H](C)CC)C(=O)O` [SEQ ID NO: 16, H-Aib-H-G-T-F-T-S-D-L-S-K-L-K[gGlu-Palm]-E-E-Q-R-Q-Aib-E-F-I-E-W-L-K-A-dAla-G-P-P-S-Aib-K-P-P-P-K-NH2] (H-H[Aib]HGTFTSDLSKLK([γGlu-Palmitoyl])EEQRQ[Aib]EFIEWLKA[dA]GPPS[Aib]KPPPK-NH2), the “Lag time before increase” value is over 45 h.

In the case of `CCCCCCCCCCCCCCCCCC(=O)N[C@@H](CCC(=O)NCCCC[C@H](NC(=O)[C@H](CC(C)C)NC(=O)[C@H](CCCCN)NC(=O)[C@H](CO)NC(=O)[C@H](CC(C)C)NC(=O)[C@H](CC(=O)O)NC(=O)[C@H](CO)NC(=O)[C@@H](NC(=O)[C@H](Cc1ccccc1)NC(=O)[C@@H](NC(=O)CNC(=O)[C@H](Cc1c[nH]cn1)NC(=O)C(C)(C)NC(=O)[C@@H](N)Cc1c[nH]cn1)[C@@H](C)O)[C@@H](C)O)C(=O)N[C@@H](CCC(=O)O)C(=O)N[C@@H](CCC(=O)O)C(=O)N[C@@H](CCC(N)=O)C(=O)N[C@@H](CCCNC(=N)N)C(=O)N[C@@H](CCC(N)=O)C(=O)NC(C)(C)C(=O)N[C@@H](CCC(=O)O)C(=O)N[C@@H](Cc1ccccc1)C(=O)N[C@H](C(=O)N[C@@H](CCC(=O)O)C(=O)N[C@@H](Cc1c[nH]c2ccccc12)C(=O)N[C@@H](CC(C)C)C(=O)N[C@@H](CCCCN)C(=O)N[C@@H](C)C(=O)N[C@H](C)C(=O)NCC(=O)N1CCC[C@H]1C(=O)N1CCC[C@H]1C(=O)N[C@@H](CO)C(=O)NC(C)(C)C(=O)N[C@@H](CCCCN)C(=O)N1CCC[C@H]1C(=O)N1CCC[C@H]1C(=O)N1CCC[C@H]1C(=O)N[C@@H](CCCCN)C(N)=O)[C@@H](C)CC)C(=O)O` [SEQ ID NO: 17, H-Aib-H-G-T-F-T-S-D-L-S-K-L-K[gGlu-Stea]-E-E-Q-R-Q-Aib-E-F-I-E-W-L-K-A-dAla-G-P-P-S-Aib-K-P-P-P-K-NH2] (H-H[Aib]HGTFTSDLSKLK([γGlu-Stearoyl])EEQRQ[Aib]EFIEWLKA[dA]GPPS[Aib]KPPPK-NH2), the “Lag time before increase” value is given as over 45 h.

The next data set deals with female diabetic db/db mice. Put plainly: Acute effects after s.c. treatment on blood glucose in non-fasting female diabetic db/db mice. The class given is in vivo. The conditions noted are these: single 30 μg/kg s.c. Here is the method: Female healthy, lean BKS.Cg-(lean)/OlaHsd and diabetes-prone, obese BKS.Cg-+Lepr^db/+Lepr^db/OlaHsd mice were ordered group housed from Envigo RMS Inc., shipped group housed and remained group housed in shoebox caging with wood chip bedding until day 15 of the predose phase. At the study start mice were approximately 12 weeks old.
Mice were housed under vivarium conditions including a 12 h light/dark cycle (light phase 04:00 AM-4:00 PM), room temperatures between 23-26° C. and a relative humidity between 30-70%. All animals had free access to water and Purina Fomulab Diet 5008.
On predose day 9 blood glucose and body mass (approximately between 08:00-10:00 AM) as well as HbA1c measurements were performed. On day 15 of the predose phase animals were assigned to treatment groups (n=8) and to new cages to match mean HbA1c and body masses between all db/db groups. An age-matched lean group was included in the study as a healthy, lean reference.
Prior to day 1 of the dosing phase, the test article was diluted with Phosphate Buffered Saline (PBS, Gibco, without CaCl2 and MgCl2) to a concentration of 1 mg/mL and aliquots of this stock solution were stored at approximately ≤−60° C. On day 1 of the dosing phase the stock aliquot was thawed and the injected test article solution was prepared fresh by diluting it with PBS to achieve the desired concentration.
On Day 1 of the dosing phase db/db mice were either treated once with a s.c. injection of PBS-vehicle or 30 μg/kg test article. The lean reference group was treated once with a s.c. injection of PBS-vehicle. The dosing was initiated and completed between 08:00 and 10:00 AM. The applied volume was 5 ml/kg and the dose was adjusted to the most recent body mass recording of each individual.
Animals had unlimited access to water and feed during the experiment. On day 1 of the dosing phase approximately 5 μL of blood were collected via tail clips at minute −30 and 0 prior to any other inlife activities. At minute 0 mice received a s.c. dose of either PBS-vehicle or 30 μg/kg test article. Further blood samples were harvested at hour 0.25, 0.5, 1, 1.5, 2, 3, 4, 6, 8, and 24 post-dose. Glucose measurements were performed in whole blood using AlphaTRAK glucometers. If the glucose concentrations of two measurements differed by more than 20 mg/dL a third value was recorded. The Area Under the Curve (AUC) for blood glucose was calculated via the trapezoid method and for the duration of the 24 post-dose hours.
In the Figures data are depicted as means±SEM. […] A One Way Analysis of Variance and multiple comparisons (Dunnett's Method) were performed comparing the group of diabetic, obese db/db vehicle mice (n=8) with each diabetic, obese db/db test article treated mice (n=8). […] Non-diabetic, lean-vehicle group data are depicted in the Figures serving as a reference dataset for the non-obese, non-diabetic state.
With `CCCCCCCCCCCCCCCC(=O)N[C@@H](CCC(=O)NCCCC[C@H](NC(=O)[C@H](CC(C)C)NC(=O)[C@H](CCCCN)NC(=O)[C@H](CO)NC(=O)[C@H](CC(C)C)NC(=O)[C@H](CC(=O)O)NC(=O)[C@H](CO)NC(=O)[C@@H](NC(=O)[C@H](Cc1ccccc1)NC(=O)[C@@H](NC(=O)CNC(=O)[C@H](Cc1c[nH]cn1)NC(=O)C(C)(C)NC(=O)[C@@H](N)Cc1c[nH]cn1)[C@@H](C)O)[C@@H](C)O)C(=O)N[C@@H](CCC(=O)O)C(=O)N[C@@H](CCC(=O)O)C(=O)N[C@@H](CCC(N)=O)C(=O)N[C@@H](CCCNC(=N)N)C(=O)N[C@@H](CCC(N)=O)C(=O)NC(C)(C)C(=O)N[C@@H](CCC(=O)O)C(=O)N[C@@H](Cc1ccccc1)C(=O)N[C@H](C(=O)N[C@@H](CCC(=O)O)C(=O)N[C@@H](Cc1c[nH]c2ccccc12)C(=O)N[C@@H](CC(C)C)C(=O)N[C@@H](CCCCN)C(=O)N[C@@H](C)C(=O)N[C@H](C)C(=O)NCC(=O)N1CCC[C@H]1C(=O)N1CCC[C@H]1C(=O)N[C@@H](CO)C(=O)NC(C)(C)C(=O)N[C@@H](CCCCN)C(=O)N1CCC[C@H]1C(=O)N1CCC[C@H]1C(=O)N1CCC[C@H]1C(=O)N[C@@H](CCCCN)C(N)=O)[C@@H](C)CC)C(=O)O` [SEQ ID NO: 16, H-Aib-H-G-T-F-T-S-D-L-S-K-L-K[gGlu-Palm]-E-E-Q-R-Q-Aib-E-F-I-E-W-L-K-A-dAla-G-P-P-S-Aib-K-P-P-P-K-NH2] (H-H[Aib]HGTFTSDLSKLK([γGlu-Palmitoyl])EEQRQ[Aib]EFIEWLKA[dA]GPPS[Aib]KPPPK-NH2), the “mean blood glucose concentration 24 hours post-dose relative to baseline” value was “at or close to baseline”.
